Results: patent US5834461A, “Tricyclic benzazepine vasopressin antagonists” (American Cyanamid Company, priority 1997, dated 1998)

Columns and labels:
[1] = system: vasopressin V2; assay: Vasopressin V2 Antagonist Activity in Conscious Hydrated Rats (diuretic effect); type: in vivo, normal Sprague-Dawley rats; settings: AVP 0.4 μg/kg i.p.
Procedure, shortened: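 Conscious rats were dosed orally at 0.1–100 mg/kg, and AVP 0.4 μg/kg i.p. in peanut oil followed 1 h later. Urine volume, osmolality and Na/K/Cl were compared against AVP-treated controls, with non-AVP rats as water-loading controls.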

[2] = system: vasopressin V1; assay: Vasopressin V1 Antagonist Activity in Conscious Rats (vasopressin vasopressor response); type: in vivo, rat (spontaneously hypertensive rats)
Procedure, shortened: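 Conscious rats had the ventral caudal tail artery cannulated into the lower abdominal aorta under local procaine anesthesia, plus a caudal vein cannula for intravenous dosing. Pulsatile blood pressure was recorded via a Statham P23Db transducer. Vasopressor responses to vasopressin injections were measured before and after compound dosing, with percent antagonism calculated relative to the pre-drug response taken as 100%.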

[3] = target: vasopressin V1 receptor (rat liver plasma membranes) (Rattus norvegicus, UniProt P30560); assay: Binding Assay to Rat Hepatic V1 Receptors; settings: for IC50: rat hepatic V1
Sequence of vasopressin V1 receptor (rat liver plasma membranes) (P30560 whole entry): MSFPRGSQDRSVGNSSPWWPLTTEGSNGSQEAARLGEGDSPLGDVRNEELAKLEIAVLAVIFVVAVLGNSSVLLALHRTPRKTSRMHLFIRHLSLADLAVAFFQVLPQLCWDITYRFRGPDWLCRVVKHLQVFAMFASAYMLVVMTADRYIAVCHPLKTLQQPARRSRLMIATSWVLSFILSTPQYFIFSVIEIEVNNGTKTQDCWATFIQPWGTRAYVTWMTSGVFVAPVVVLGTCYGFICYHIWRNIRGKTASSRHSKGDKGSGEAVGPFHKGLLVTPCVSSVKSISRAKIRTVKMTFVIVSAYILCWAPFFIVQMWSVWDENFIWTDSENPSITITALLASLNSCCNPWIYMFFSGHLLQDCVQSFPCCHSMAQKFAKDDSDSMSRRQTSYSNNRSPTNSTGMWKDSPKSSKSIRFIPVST

[4] = target: T1, rat kidney medullary V2 receptors (Rattus norvegicus, UniProt Q00788); assay: Binding Assay to Rat Kidney Medullary V2 Receptors; settings: for inhibition at 10 µM: rat kidney, read-out: V2, % at concentration in brackets; for IC50: rat kidney medullary V2
T1 construct: Medullary tissues from rat kidneys are dissected out; from tissue; host or cells: rat kidney medulla membranes
T1 sequence (Q00788 whole entry): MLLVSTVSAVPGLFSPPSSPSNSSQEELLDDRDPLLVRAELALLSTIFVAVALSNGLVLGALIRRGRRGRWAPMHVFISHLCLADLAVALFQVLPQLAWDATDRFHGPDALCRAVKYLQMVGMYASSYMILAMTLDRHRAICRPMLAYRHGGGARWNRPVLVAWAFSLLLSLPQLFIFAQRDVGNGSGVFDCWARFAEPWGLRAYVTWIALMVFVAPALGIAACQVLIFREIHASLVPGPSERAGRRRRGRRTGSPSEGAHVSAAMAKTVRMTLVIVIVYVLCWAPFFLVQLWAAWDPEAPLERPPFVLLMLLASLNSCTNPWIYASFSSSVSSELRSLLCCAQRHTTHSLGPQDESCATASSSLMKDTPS
Procedure, shortened: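 Competition binding: [3H]AVP at 0.8 nM, test compounds from 50% DMSO, and membranes from rat kidney medulla, left 120 min on the bench. Filtration then liquid scintillation counting measured bound ligand; 1.0 μM unlabeled ligand set non-specific binding.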

Row | SMILES | Osmolality ([1]; 10 mg/kg orally) | Urine Volume ([1]; 10 mg/kg orally) | MAX % Inhibition ([2]; 30 mg/kg i.v.) | Time of max % inhibition ([2]; 30 mg/kg i.v.) | IC50 [3] | IC50 [4] | other results
1 | Cc1nc2c(s1)CCN(C(=O)c1ccc(NC(=O)c3ccc(Cl)cc3Cl)cc1)c1ccccc1-2 [Example 455, N-[4-(4,5-Dihydro-2-methyl-6H-thiazolo[5,4-d][1]-benzazepin-6-yl)carbonyl1phenyl]-2,4-dichlorobenzamide] | 420 mOsm/kg | 13.5 ml/4 hrs. | 46% | 120 min |  |  | 
2 | Cc1ccccc1C(=O)Nc1c(C)cc(C(=O)N2Cc3ccccc3Cc3ccccc32)cc1C [Example 258, N-[4-[(6,11-Dihydro-5H-dibenz[b,e]azepin-5-yl)-carbonyl]-2,6-dimethylphenyl]-2-methylbenzamide] |  |  | 61% | 60 min |  |  | inhibition at 10 µM ([3]; 2 h, 10 μM, rat hepatic, read-out: V1, % at concentration in brackets): 75%; inhibition at 10 µM [4]: 87%
3 | COc1cc(C(=O)N2Cc3ccccc3Cc3ccccc32)ccc1NC(=O)c1ccccc1C [Example 257, N-[4-[(6,11-Dihydro-5H-dibenz[b,e]azepin-5-yl)-carbonyl]-2-methoxyphenyl]-2-methylbenzamide] | 434 mOsm/kg | 11.8 ml/4 hrs. |  |  |  |  | MAX % Inhibition ([2]; 10 mg/kg i.v.): 71%; Time of max % inhibition ([2]; 10 mg/kg i.v.): 60 min
4 | Cc1ccc(F)cc1C(=O)Nc1ccc(C(=O)N2CCc3c[nH]nc3-c3ccccc32)c(Cl)c1 [Example 581] |  |  |  |  | 740 nM | 11.3 nM | 
5 | O=C(Nc1ccc(C(=O)N2Cc3ccccc3Sc3ccccc32)cc1)c1ccccc1Cl [Example 448, N-[4-[(Dibenz[b,f][1,4]thiazepin-10(11H)yl)-carbonyl]phenyl]-2-chlorobenzamide] |  |  | 60% | 90 min | 73 nM | 190 nM | Osmolality ([1]; 30 mg/kg orally): 1084 mOsm/kg; Urine Volume ([1]; 30 mg/kg orally): 4.8 ml/4 hrs.
6 | Cc1cc(C(=O)N2Cc3ccccc3Cc3ccccc32)cc(C)c1NC(=O)c1ccc(Cl)cc1Cl [Example 259, N-[4-[(6,11-Dihydro-5H-dibenz[b,e]azepin-5-yl)-carbonyl]-2,6-dimethylphenyl]-2 4-dichlorobenzamide] | 1080 mOsm/kg | 6 ml/4 hrs. | 29% | 90 min | 4000 nM |  | inhibition at 10 µM [4]: 13%
7 | O=C(Nc1ccc(C(=O)N2Cc3ccccc3Cc3ccccc32)cc1)c1cccc(Cl)c1Cl [Example 253, N-[4-[(6,11-Dihydro-5H-dibenz[b,e]azepin-5-yl)-carbonyl]phenyl]-2,3-dichlorobenzamide] | 837 mOsm/kg | 6 ml/4 hrs. | 57% | 180 min | 310 nM | 190 nM | 
8 | O=C(Nc1ccc(C(=O)N2Cc3ccccc3Cc3ccccc32)cc1)C1CC=CCC1 (stereo not drawn) [Example 255, N-[4-[(6,11-Dihydro-5H-dibenz[b,e]azepin-5-yl)-carbonyl]phenyl]-3-cyclohexene-1-carboxamide] |  |  |  |  | 27 nM | 39 nM | Osmolality ([1]; 30 mg/kg orally): 1456 mOsm/kg; Urine Volume ([1]; 30 mg/kg orally): 2.3 ml/4 hrs.; MAX % Inhibition ([2]; 10 mg/kg i.v.): 65%; Time of max % inhibition ([2]; 10 mg/kg i.v.): 60 min
9 | Cc1ccccc1C(=O)Nc1ccc(C(=O)N2Cc3ccccc3Cc3ccccc32)c(Cl)c1 [Example 260, N-[4-[(6,11-Dihydro-5H-dibenz[b,e]azepin-5-yl)-carbonyl]-3-chlorophenyl]-2-methylbenzamide] | 498 ± 25 mOsm/kg | 13.8 ± 2.1 ml/4 hrs. | 79% | 120 min | 120 nM | 65 nM | 
10 | O=C(Nc1ccc(C(=O)N2Cc3ccccc3Cc3ccccc32)cc1)c1cc(Cl)cc(Cl)c1 [Example 251, N-(4-[(6,11-Dihydro-5H-dibenz[b,e]azepin-5-yl)-carbonyl]phenyl]-3,5-dichlorobenzamide] | 835 mOsm/kg | 7.5 ml/4 hrs. | 41% | 60 min | 1500 nM | 140 nM | 
11 | COc1cc(C(=O)N2Cc3ccccc3Cc3ccccc32)ccc1NC(=O)c1cc(F)ccc1C [Example 261, N-[4-[(6,11-Dihydro-5H-dibenz[b,e]azepin-5-yl)-carbonyl]-2-methoxyphenyl]-2-methyl-5-fluorobenzamide] | 1337 mOsm/kg | 3.8 ml/4 hrs. |  |  |  |  | MAX % Inhibition ([2]; 10 mg/kg i.v.): 74%; Time of max % inhibition ([2]; 10 mg/kg i.v.): 60 min
12 | Cc1ccccc1C(=O)Nc1ccc(C(=O)N2Cc3ccccc3Cc3ccccc32)cc1 [Example 2, N-[4-[(6,11-Dihydro-5H-dibenz[b,e]azepin-5-yl)carbonyl]phenyl]-2-methylbenzamide] | 408 ± 34 mOsm/kg | 15.2 ± 2.4 ml/4 hrs. |  |  | 150 nM | 68 nM | Osmolality ([1]; 3 mg/kg orally): 1235 ± 162 mOsm/kg; Urine Volume ([1]; 3 mg/kg orally): 2.9 ± 0.5 ml/4 hrs.; Osmolality ([1]; 30 mg/kg orally): 401 ± 49 mOsm/kg; Urine Volume ([1]; 30 mg/kg orally): 18.9 ± 1.7 ml/4 hrs.; MAX % Inhibition ([2]; 10 mg/kg p.o.): 65%; Time of max % inhibition ([2]; 10 mg/kg p.o.): 180 min
13 | Cc1nc2c(s1)CCN(C(=O)c1ccc(NC(=O)c3cc(F)ccc3C)cc1)c1ccccc1-2 [Example 534] | 695 mOsm/kg | 10.6 ml/4 hrs. |  |  |  |  | 
14 | Cc1ccc(F)cc1C(=O)Nc1ccc(C(=O)N2CCc3c[nH]nc3-c3ccccc32)cc1 [Example 584, N-[4-[(4.5-Dihydropyrazolo[4,3-d][1]benzazepin-6(2H)-yl)carbonyl]phenyl]-5-fluoro-2-methylbenzamide] |  |  |  |  | 39 nM | 11 nM | 
15 | COc1cc(C(=O)N2Cc3ccccc3Cc3ccccc32)ccc1NC(=O)c1ccc(Cl)cc1Cl [Example 263, N-[4-[(6,11-Dihydro-5H-dibenz[b,e]azepin-5-yl)-carbonyl]-2-methoxyphenyl]-2,4-dichlorobenzamide] |  |  |  |  |  |  | MAX % Inhibition ([2]; 10 mg/kg i.v.): 55%; Time of max % inhibition ([2]; 10 mg/kg i.v.): 90 min
16 | Cc1c(F)cccc1C(=O)Nc1ccc(C(=O)N2Cc3ccccc3Cc3ccccc32)cc1Cl [Example 262, N-[4-[(6,11-Dihydro-5H-dibenz[b,e]azepin-5-yl)-carbonyl]-2-chlorophenyl]-2-methyl-3-fluorobenzamide] | 899 mOsm/kg | 6.8 ml/4 hrs. |  |  |  |  | 
17 | CC(C)COc1ccc([N+](=O)[O-])cc1C(=O)Nc1ccc(C(=O)N2Cc3ccccc3Cc3ccccc32)cc1 [Example 453] | 776 mOsm/kg | 9.4 ml/4 hrs. |  |  |  |  | inhibition at 10 µM [4]: 26%
